Here are results for four compounds from ChEMBL document CHEMBL5150023, “The Pursuit of Enzyme Activation: A Snapshot of the Gold Rush” (J Med Chem, 2022).

Assay [1] concerns the target T1, Serine/threonine-protein kinase ULK1 (Homo sapiens) (UniProt O75385).
T1 sequence (whole entry): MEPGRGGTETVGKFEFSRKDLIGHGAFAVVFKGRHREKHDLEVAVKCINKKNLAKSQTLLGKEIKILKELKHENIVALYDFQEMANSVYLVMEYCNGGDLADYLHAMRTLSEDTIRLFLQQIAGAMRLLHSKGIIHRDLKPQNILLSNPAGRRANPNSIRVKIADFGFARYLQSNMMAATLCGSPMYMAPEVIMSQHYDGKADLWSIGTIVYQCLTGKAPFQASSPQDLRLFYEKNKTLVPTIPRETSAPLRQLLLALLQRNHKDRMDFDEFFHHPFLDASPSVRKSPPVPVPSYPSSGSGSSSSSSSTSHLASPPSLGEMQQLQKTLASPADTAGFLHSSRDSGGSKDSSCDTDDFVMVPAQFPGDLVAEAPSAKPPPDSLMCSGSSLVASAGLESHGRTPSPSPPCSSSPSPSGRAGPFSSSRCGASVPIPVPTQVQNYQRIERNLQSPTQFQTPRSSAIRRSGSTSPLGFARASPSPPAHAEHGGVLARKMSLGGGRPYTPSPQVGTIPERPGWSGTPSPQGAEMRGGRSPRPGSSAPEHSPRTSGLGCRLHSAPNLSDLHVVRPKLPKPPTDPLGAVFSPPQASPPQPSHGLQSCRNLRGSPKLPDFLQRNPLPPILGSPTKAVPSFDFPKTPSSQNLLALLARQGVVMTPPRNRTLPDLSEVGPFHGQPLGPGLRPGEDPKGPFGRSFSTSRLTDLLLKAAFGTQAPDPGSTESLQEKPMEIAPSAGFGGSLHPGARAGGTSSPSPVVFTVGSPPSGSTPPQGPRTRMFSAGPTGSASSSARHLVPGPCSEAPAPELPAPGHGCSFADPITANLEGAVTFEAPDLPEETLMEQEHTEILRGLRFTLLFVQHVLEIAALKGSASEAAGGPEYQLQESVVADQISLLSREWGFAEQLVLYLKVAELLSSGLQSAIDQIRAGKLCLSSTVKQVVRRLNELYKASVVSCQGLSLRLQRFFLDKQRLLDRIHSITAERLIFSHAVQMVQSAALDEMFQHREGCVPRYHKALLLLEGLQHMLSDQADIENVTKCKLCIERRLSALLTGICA
Briefly: Agonist activity at ULK1 (unknown origin) expressed in HEK293T cells at 100 nM incubated for 60 mins by ADP-Glo luminescence assay relative to control. The class given is cell-based. The note with it: filed as agonist. (In ADP-Glo the light output rises with the ADP produced.)

Assay [2] has as its target T2, NAD-dependent protein deacetylase sirtuin-1 (Homo sapiens) (UniProt Q96EB6).
T2 sequence (whole entry): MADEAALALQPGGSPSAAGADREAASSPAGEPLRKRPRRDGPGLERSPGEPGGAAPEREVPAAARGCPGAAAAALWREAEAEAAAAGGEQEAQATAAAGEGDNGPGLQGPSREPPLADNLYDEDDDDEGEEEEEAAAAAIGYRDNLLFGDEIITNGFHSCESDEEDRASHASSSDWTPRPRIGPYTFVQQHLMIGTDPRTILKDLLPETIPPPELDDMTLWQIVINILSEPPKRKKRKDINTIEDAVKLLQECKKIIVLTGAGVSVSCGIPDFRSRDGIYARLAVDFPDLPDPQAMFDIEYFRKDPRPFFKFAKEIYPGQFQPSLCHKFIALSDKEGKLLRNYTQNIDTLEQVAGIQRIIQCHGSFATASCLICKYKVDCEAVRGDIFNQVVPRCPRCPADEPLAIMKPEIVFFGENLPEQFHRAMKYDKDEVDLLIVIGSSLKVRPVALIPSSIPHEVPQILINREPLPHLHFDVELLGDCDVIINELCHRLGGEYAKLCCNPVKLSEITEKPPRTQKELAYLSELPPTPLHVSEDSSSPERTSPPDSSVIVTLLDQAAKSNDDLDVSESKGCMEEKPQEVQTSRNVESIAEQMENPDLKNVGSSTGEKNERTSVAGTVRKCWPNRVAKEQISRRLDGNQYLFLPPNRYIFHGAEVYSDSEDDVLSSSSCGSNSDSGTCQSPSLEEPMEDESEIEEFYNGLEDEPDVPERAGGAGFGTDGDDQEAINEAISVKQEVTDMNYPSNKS
Briefly: Activation of human N-terminal hexa-histidine tagged SIRT1 expressed in Escherichia coli BL21 (DE3) using peptide substrate by fluorescence polarization assay. The note with it: filed as activator. Background: Polarisation of emitted light reports the rotation of a fluorescent probe.

Assay [3] has as its target T2, NAD-dependent protein deacetylase sirtuin-1 (Homo sapiens). Briefly: Activation of human N-terminal hexa-histidine tagged SIRT1 expressed in Escherichia coli BL21 (DE3) using peptide substrate by fluorescence polarization assay relative to control. The note with it: filed as activator.
Assay [4] in a line: Activation of human G6PD canton (R459L) mutant assessed as restoration of activity using G6P as substrate incubated for 3 hrs d by substrate addition and mesured after 2.5 mins by diaphorase-coupled enzyme assay.
The species entered for a further assay is Homo sapiens. Briefly: Activation of human G6PD canton (R459L) mutant assessed as restoration of activity using G6P as substrate incubated for 3 hrs d by substrate addition and mesured after 2.5 mins by diaphorase-coupled enzyme assay relative to wild type G6PD activity percentage.

As to `CC(C)CN(CC(=O)N1CCN(CC(OCc2ccc3ccccc3c2)c2ccc(Cl)cc2Cl)CC1)CC(C)C` (stereo unspecified), the Activity in assay [1] was 243%. For `O=C(Nc1ccccc1-c1cn2c(CN3CCNCC3)csc2n1)c1cnc2ccccc2n1`, the EC1.5 in assay [2] was 0.16 µM. Also, in assay [3], the Emax came out at 781%.

Turning to `c1ccc2c(CCNCCSSCCNCCc3c[nH]c4ccccc34)c[nH]c2c1`, the EC50 in assay [4] was found to be 3000 nM. Further, the Activity in the assay listed under Homo sapiens worked out at 30%.

Turning to `Oc1ccc(/C=C/c2cc(O)cc(O)c2)cc1`, in assay [3], the Emax turned out to be 201%.

What is called Emax is the size of the effect at its maximum, as opposed to the concentration needed. What is called EC50 is the midpoint of the concentration-response curve.
